The results in this text go back to ChEMBL document CHEMBL1157041, “Support vector machines: development of QSAR models for predicting anti-HIV-1 activity of TIBO derivatives” (Eur J Med Chem, 2010).

The test system of this test is Human immunodeficiency virus 1. Kind of test: Antiviral activity against HIV1 infected in human MT4 cells assessed as protection against virus-induced cytopathic effect. The class given is functional, organism-based. Particulars: for IC50: Human immunodeficiency virus 1, MT4; for pIC50: mt4.

Each structure is given as a SMILES string.

For orientation: IC50 means the midpoint of a concentration-inhibition curve. In the case of `CCCN1Cc2cccc3[nH]c(=O)n(c23)C[C@@H]1C`, the IC50 was 89.1 µM.
Same read-out and setting: the value for `C[C@H]1Cn2c(=O)[nH]c3cccc(c32)CN1CC1CC1` was 43.7 µM; that for `C/C=C/CN1Cc2cccc3[nH]c(=O)n(c23)C[C@@H]1C` was 57.5 µM; that for `C=C(C)CN1Cc2cccc3[nH]c(=O)n(c23)C[C@@H]1C` was 46.8 µM.
The same measure, in the same setting: the value for `C#CCN1Cc2cccc3[nH]c(=O)n(c23)C[C@@H]1C` was 575 µM.
Still for that read-out and setting: the value for `C/C=C\CN1Cc2cccc3[nH]c(=O)n(c23)C[C@@H]1C` was 34.7 µM.
Consider `C=C(CC)CN1Cc2cccc3[nH]c(=O)n(c23)C[C@@H]1C`, for which the IC50 is 37.2 µM.
On the same count and under the same terms, the value for `C/C=C(\C)CN1Cc2cccc3[nH]c(=O)n(c23)C[C@@H]1C` was 28.8 µM.
The same measure, in the same setting: the value for `C[C@H]1Cn2c(=O)[nH]c3cccc(c32)CN1C/C=C\c1ccccc1` was 123 µM; that for `CC1c2cccc3[nH]c(=S)n(c23)[C@@H](C)[C@H](C)N1CC1CC1` (stereo not given in full) was 13.5 µM; that for `C=CC(=C)CN1Cc2cccc3[nH]c(=O)n(c23)C[C@@H]1C` was 70.8 µM.
On the same count and under the same terms, the value for `C=C(Br)CN1Cc2cccc3[nH]c(=O)n(c23)C[C@@H]1C` was 61.7 µM; that for `COC(=O)CN1Cc2cccc3[nH]c(=O)n(c23)C[C@@H]1C` was 851 µM.
As to `C[C@H]1Cn2c(=O)[nH]c3cccc(c32)CN1Cc1ccco1`, the IC50 is 107 µM.
Same read-out and setting: the value for `C=CCCN1Cc2cccc3[nH]c(=O)n(c23)C[C@@H]1C` was 50.1 µM; that for `C[C@@H]1CN(CC2CC2)Cc2cc(Cl)cc3[nH]c(=S)n1c23` was 2.19 µM; that for `CC(C)=CCN1Cc2cccc3nc(O)n(c23)C[C@@H]1C` was 12.6 µM.
Same read-out and setting: the value for `CC(C)=CCN1Cc2cc(Cl)c(Cl)c3nc(S)n(c23)C[C@@H]1C` was 0.0251 µM; that for `CC(C)=CCN1[C@H](C)Cn2c(=S)[nH]c3cccc(c32)[C@@H]1C` was 1.15 µM; that for `C=CCN1Cc2cccc3[nH]c(=O)n(c23)C[C@@H]1C` was 70.8 µM.
On the same count and under the same terms, the value for `CCCCN1Cc2cccc3[nH]c(=O)n(c23)C[C@@H]1C` was 100 µM.
For `C=C(C)CN1Cc2cccc3[nH]c(=O)n(c23)CC1C` (stereo not given), the IC50 was 34.7 µM.
Same read-out and setting: the value for `CCCN1Cc2cccc3[nH]c(=O)n(c23)CC1C` (stereo not given) was 60.3 µM.
In the case of `CCCN1Cc2cccc3[nH]c(=S)n(c23)CC1C` (stereo not given), the concentration for half-maximal inhibition (IC50) was 1.66 µM.
Still for that read-out and setting: the value for `C=C(C)CN1Cc2cccc3[nH]c(=O)n(c23)C(C)C1` (stereo not given) was 31.6 µM; that for `CC(C)=CCN1C(C)c2cccc3[nH]c(=O)n(c23)[C@@H](C)[C@H]1C` (relative stereo) was 56.2 µM; that for `CC(C)=CCN1C(C)c2cccc3[nH]c(=S)n(c23)[C@@H](C)[C@H]1C` (relative stereo) was 2.24 µM.
The same measure, in the same setting: the value for `CC(C)=CCN1[C@@H](C)Cn2c(=S)[nH]c3cccc(c32)[C@@H]1C` (relative stereo) was 0.0417 µM.
One may read the pIC50 as the IC50 on a negative log10 scale, so that one unit is a factor of ten. As for `CC(C)=CCN1Cc2cccc3[nH]c(=S)n(c23)C[C@@H]1C` (stereo in doubt; 1), the pIC50 is 7.36.
In the case of `CC(C)=CCN1Cc2cccc3[nH]c(=S)n(c23)C[C@@H]1C` (stereo in doubt; 81), the pIC50 was found to be 7.01.
